In patent US20070099963A1, “Nematicidal compositions and methods” (priority 2005, published 2007):

Tests used:
[1] = tested on: Thrips; assay: Thrips damage rating on cotton plants (Example 1); assay type: in vivo; conditions: cotton Delta and Pineland variety 555, rating 1 = no damage, 5 = plant dead; for Thrips Damage Rating 3 weeks: 3 weeks after planting; for Thrips Damage Rating 4 weeks: 4 weeks after planting
From the text: This example illustrates the effect of a composition of the invention on cotton plant damage and plant height for cotton plants planted in soil known to have nematode (Rotylenchulus reniformis) pressure. The cotton plants utilized were commercially available Delta and Pineland variety 555.
The compositions described in Table 1 below were applied either as a seed treatment (Samples B, C, and E-G) or in furrow (Sample D) at the respective application rates set forth in Table 1.

[2] = tested on: Thrips; assay: Thrips damage rating on cotton plants (Example 2); assay type: in vivo; conditions: Fibermax cotton variety 960, rating 1 = no damage, 5 = plant dead; for Thrips Damage Rating 3 weeks: 3 weeks after planting; for Thrips Damage Rating 4 weeks: 4 weeks after planting
From the text: This example illustrates the effect of the compositions from Table 1 for cotton plants planted in soil known to have nematode (Rotylenchulus reniformis) pressure. FIGS. 4 and 5 illustrate the Thrips damage ratings at three and four weeks, respectively, after planting. FIG. 6 illustrates the plant height seven weeks after planting. The cotton plants utilized were commercially available Fibermax cotton variety 960.

Structure (SMILES)	Thrips Damage Rating 3 weeks [1]	Thrips Damage Rating 4 weeks [1]	Thrips Damage Rating 3 weeks [2]	Thrips Damage Rating 4 weeks [2]
O=[N+]([O-])NC1=NCCN1Cc1ccc(Cl)nc1 [B, imidacloprid]	2	2.3	2.63	2.5
O=[N+]([O-])NC1=NCCN1Cc1ccc(Cl)nc1 [E, imidacloprid]	2.25	2.4	2.88	3
CNC(=O)O/N=C/C(C)(C)SC [Sample D, aldicarb]	1.13	1.5	2.5	2.1
